# Entries after “also recorded” stand apart in the source; their conditions may differ. Where no end group is shown, it is not given here.
# Target: T1, FPRL1 (Homo sapiens, UniProt P25090)
# T1 sequence (P25090 1-351): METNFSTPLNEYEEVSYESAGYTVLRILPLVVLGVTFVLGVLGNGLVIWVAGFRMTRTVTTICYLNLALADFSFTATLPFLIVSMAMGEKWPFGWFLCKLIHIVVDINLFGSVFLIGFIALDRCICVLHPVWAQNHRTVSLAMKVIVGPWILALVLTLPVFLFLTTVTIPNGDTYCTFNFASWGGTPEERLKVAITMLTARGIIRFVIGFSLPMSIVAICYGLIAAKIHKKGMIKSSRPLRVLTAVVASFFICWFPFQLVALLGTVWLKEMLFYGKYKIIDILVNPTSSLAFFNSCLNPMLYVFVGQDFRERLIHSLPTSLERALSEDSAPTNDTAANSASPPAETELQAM
# Assay: Whole cell adenylate cyclase (cAMP) assay, stably transfected HEK293 cells
# Format: cell-based
# Conditions: in the presence of 5 μM forskolin, FIG. 6
# Source text: A Flash Plate™ Adenylyl Cyclase kit (New England Nuclear; Cat. No. SMP004A) designed for cell-based assays can be modified for use with crude plasma membranes. The Flash Plate wells can contain a scintillant coating which also contains a specific antibody recognizing cAMP. The cAMP generated in the wells can be quantitated by a direct competition for binding of radioactive cAMP tracer to the cAMP antibody. The following serves as a brief protocol for the measurement of changes in cAMP levels in whole cells that express the receptors.
# Transfected cells are harvested approximately twenty four hours after transient transfection. Media is carefully aspirated off and discarded. 10 ml of PBS is gently added to each dish of cells followed by careful aspiration. 1 ml of Sigma cell dissociation buffer and 3 ml of PBS are added to each plate. Cells are pipetted off the plate and the cell suspension is collected into a 50 ml conical centrifuge tube. Cells are then centrifuged at room temperature at 1,100 rpm for 5 min. The cell pellet is carefully re-suspended into an appropriate volume of PBS (about 3 ml/plate). The cells are then counted using a hemocytometer and additional PBS is added to give the appropriate number of cells (with a final volume of about 50 μl/well). […]
# In FIG. 6, agonist activity was determined through adenylate cyclase activity. […] Samples were then assessed for the level of intracellular cAMP as described in Example 4, supra.
Compound,"Agonist activity at FPRL1, intracellular cAMP","Agonist activity at FPRL1, intracellular cAMP (listed as Human)"
CC[C@H](C)[C@H](NC(=O)[C@H](CCC(=O)O)NC(=O)[C@H](CO)NC(=O)[C@@H](NC(=O)[C@H](CC(C)C)NC(=O)[C@H](CC(C)C)NC(=O)[C@H](CC(C)C)NC(=O)[C@H](CC(C)C)NC(=O)[C@H](CS)NC(=O)[C@H](CO)NC(=O)[C@H](Cc1ccccc1)NC(=O)CNC(=O)[C@H](CCCNC(=N)N)NC(=O)[C@@H]1CCCN1C(=O)[C@H](C)NC(=O)[C@@H](N)CCSC)[C@@H](C)O)C(=O)N[C@@H](CC(=O)O)C(=O)N[C@@H](CC(C)C)C(=O)N1CCC[C@H]1C(=O)N[C@H](C(=O)N[C@@H](CCCCN)C(=O)N[C@@H](CCCNC(=N)N)C(=O)N[C@@H](CCCNC(=N)N)C(=O)N[C@@H](C)C(=O)O)C(C)C [Humanin],agonists of both FPRL1 and FPRL2,agonists of both FPRL2 and FPRL1
MAPRGFSCLLLLTGEIDLPVKRRA [[Gly14]-Humanin],agonists of both FPRL1 and FPRL2; also recorded: agonists of both FPRL2 and FPRL1,

# — patent US7776558B2, “Human G protein-coupled receptor and modulators thereof for the treatment of cell death-related disorders” (Arena Pharmaceuticals, Inc., priority 2003, dated 2010)
